{
  "source": "patent US20130172424A1",
  "about": "“METHODS AND COMPOSITIONS FOR TREATING DIABETES” (GOLDEN BIOTECHNOLOGY CORPORATION, priority 2011, published 2013)",
  "system": "diabetes induced by STZ in SD rats",
  "test": "Treatment of diabetes induced by STZ in rats",
  "type": "in vivo, Sprague-Dawley rat",
  "settings": "Group B (AopE+STZ+Compound 1), individual rats ID 1-4, before meals",
  "method": "The effects of exemplary cyclohexnone compound 1 in treating a subject suffering from diabetes were investigated in a Sprague-Dawley rat model over a four week period. The example describes the results of such experiments.\nIn vivo models. A rat model of diabetes was established by low-dose streptozotocin (STZ, 60 mg/kg) injection in SD rats. Rats of the same batch fed with normal chow (NRC) were used as a control (n=4).\nStudy group. Group A: diabetes without treatment group, n=6; Group B: AopE+STZ+Compound 1, n=4. […] Rats of Group B (treatment group) have the following blood sugar data before meals: […]",
  "note": "Values joined by “and” are separate entries in the source; they are usually repeats but may differ in a detail not shown here. Equal entries are not always repeated.",
  "data": [
    {"smiles": "COC1=C(OC)C(O)C(C/C=C(\\C)CC/C=C(\\C)CCC=C(C)C)C(C)C1=O", "note": "(centres unmarked) [Compound 1, 4-hydroxy-2,3-dimethoxy-6-methyl-5-(3,7,11-trimethyldodeca-2,6,10-trienyl)cyclohex-2-enone]", "values": [
      {"measurement": "2nd week blood sugar level", "setting": "2nd week", "result": "421 mg/dL and 330 mg/dL and 261 mg/dL and 484 mg/dL"},
      {"measurement": "4th week Blood sugar level", "setting": "4th week, untreated diabetic rats about 400-500 mg/dl, control about 100 mg/dl", "result": "147 mg/dL and 149 mg/dL and 89 mg/dL and 388 mg/dL"}
    ]}
  ]
}
